“Also recorded” adds a separate entry of the source. Each block holds one compound with its values, some of them ahead of it.
Columns and labels:
human TM cells [1] = test: Regulatory volume decrease (RVD) of human TM cells in hypotonic medium (electronic cell sizing); assay type: cell-based; conditions: hypotonic medium (200 mOsm), agent at 1 mM
Experimental: (§1) By the second method, TM cells were trypsinized briefly in Ca-free medium, then rinsed with medium containing trypsin inhibitor and suspended in Hepes MEM. Mean cell volumes were then analyzed by electronic cell sizing on a COULTER COUNTER™ radioassay (Model ZM) with channelizer (C256), using at least 50,000 cells per data point and an orifice diameter of 140 μm. Aliquots of suspended cells were diluted into Hepes MEM containing the tonicity and/or agents to be evaluated. Mean cell volumes of each suspension aliquot were followed over time, starting at 1 minute after addition of cells to the assay media. Cell suspensions were maintained at 37° C. throughout the assay period. Absolute volumes (picoliters/cell) were calculated from distribution curves of cell diameter, using a standard curve generated by polystyrene latex beads of known diameter.
In FIG. 7A, cells were exposed to isotonic medium (300 mOsm) or to hypotonic medium (200 mOsm)±1 mM DPC (diphenylamine carboxylate). Cell volume was assessed by COULTER COUNTER™ electronic cell sizing over the time course shown, using TM cells in suspension. […] Data represent means of two experiments, error values shown are SEM, n=4 (two separate RVD runs per experiment).
Data represent means of two experiments, error values shown are SEM, n=4 (two separate RVD runs per experiment).

human TM cells [2] = test: Whole cell patch clamp ion conductances of human TM cells; assay type: cell-based; conditions: human TM cells
Experimental: Further studies conducted with agents known to block Cl and K channels attenuate the swelling-activated regulatory volume decrease in TM cells and niflumic acid reduces both cell volume and intracellular [Cl] of TM cells. In these studies, human TM cells were cultured from donor eyes and used between passages three and eight. Routine whole cell patch clamp methods were used to assess conductances of TM cells in isotonic (290 mOsm) and hypotonic (230 mOsm) media, with or without NPPB, DIDS, TEA or niflumic acid. Conductances were determined from current/voltage plots, generated using a ramp protocol. […] The reversal potential observed in the presence of hypotonic medium was close to the calculated reversal potential for Cl. Switching to an external medium containing reduced Cl shifted the reversal potential toward that calculated for the low Cl medium. Treating the TM cells with the Cl channel blocker NPPB (100 μM) abolished the swelling-activated conductance in a manner reversed by subsequent washout of NPPB. […] Finally, treatment of the cells with the K channel blocker TEA (1 mM) also abolished the niflumic acid-activated TM cell conductance.
Human TM and SC cells grown to subconfluence are gently trypsinized on the day of the experiment and immediately exposed to trypsin-neutralizing solution and then allowed to settle onto standard square (22×22-mm) glass coverslips for 30 minutes before use. Routine patch clamp methods were used as described previously Barakat, A. I., et al., Circulation Research, 85: 820-828, 1999; Hamill, O. P. et al., Pflügers Archives, 391: 85-100, 1981; Mauro, T. et al., J of Invest. Dermatology, 105: 203-208, 1995; Pappone, P. A. et al., J. of Physiology, 306:377-410, 1980; Pappone, P. A. et al., J of Gen. Physiology, 106: 231-258, 1995; Pappone, P. A. et al., Amer. J. of Physiology: Cell Physiology, 264: C1014-C1019, 1993; Wilson, S. M. et al., J. of Gen. Physiology, 113: 125-138, 1999. Using the whole cell patch clamp mode, conductances were assessed for isotonic and hypotonic media. By assessing current/voltage (I/V) relationships and reversal potentials for the TM and SC cells while using specific concentrations of Cl in the pipette and bath media, the nature of the conductances observed can be determined.
Whole cell currents were measured at room temperature in a Warner recording/perfusion chamber (Warner Instrument Corp.) using standard whole-cell patch clamp techniques as described previously, Lucero, M. T. et al., J. of Gen. Physiology, 95:523-544, 1999. Thick-walled borosilicate capillaries (Sutter Instruments, Inc., Novato, Calif.) were used to manufacture pipettes with resistances of 3 to 5 MW. The voltage offset between the patch pipette and the bath solution were nulled immediately before patch formation. An agar bridge containing […] KCl was used to ground the bath solution. Voltages were recorded from a patch-clamp amplifier (AXOPATCH 200A, Axon Instruments). Data was collected on a Macintosh personal computer using Pulse+Pulsefit software (HEKA Elektronik). Whole-cell currents were recorded from single (sub confluent) cells with membrane capacitances nulled through the patch-clamp amplifier. The voltage ramp protocol included a voltage step from the holding potential to +60 mV for 40 ms followed by a ramp to −100 mV over a period of 400 ms followed by a return to the holding potential. During the protocol, voltage ramps were conducted once every 5 seconds for 10 minutes, yielding 120 traces. Conductances were computed by taking the derivative of a least-squares straight line fit to the I-V data plots using Igor Pro Software (Wavemetrics, Inc.). In cases in which the I-V plots are not linear over the entire voltage ramp (as in FIGS. 6AB), computation of the whole-cell conductance were restricted to a linear range, typically 0 to +60 mV. […]

Na—K—Cl co-transporter = biological target: T1, Na—K—Cl co-transporter (Homo sapiens, UniProt P55011); test: Na—K—Cl co-transport measured as bumetamide-sensitive K influx (86Rb tracer) in human TM cell monolayers; assay type: cell-based
T1 construct: endogenous in cells; host or cells: cultured human trabecular meshwork (TM) cells, normal or glaucomatous donors
T1 sequence (P55011 1-1212): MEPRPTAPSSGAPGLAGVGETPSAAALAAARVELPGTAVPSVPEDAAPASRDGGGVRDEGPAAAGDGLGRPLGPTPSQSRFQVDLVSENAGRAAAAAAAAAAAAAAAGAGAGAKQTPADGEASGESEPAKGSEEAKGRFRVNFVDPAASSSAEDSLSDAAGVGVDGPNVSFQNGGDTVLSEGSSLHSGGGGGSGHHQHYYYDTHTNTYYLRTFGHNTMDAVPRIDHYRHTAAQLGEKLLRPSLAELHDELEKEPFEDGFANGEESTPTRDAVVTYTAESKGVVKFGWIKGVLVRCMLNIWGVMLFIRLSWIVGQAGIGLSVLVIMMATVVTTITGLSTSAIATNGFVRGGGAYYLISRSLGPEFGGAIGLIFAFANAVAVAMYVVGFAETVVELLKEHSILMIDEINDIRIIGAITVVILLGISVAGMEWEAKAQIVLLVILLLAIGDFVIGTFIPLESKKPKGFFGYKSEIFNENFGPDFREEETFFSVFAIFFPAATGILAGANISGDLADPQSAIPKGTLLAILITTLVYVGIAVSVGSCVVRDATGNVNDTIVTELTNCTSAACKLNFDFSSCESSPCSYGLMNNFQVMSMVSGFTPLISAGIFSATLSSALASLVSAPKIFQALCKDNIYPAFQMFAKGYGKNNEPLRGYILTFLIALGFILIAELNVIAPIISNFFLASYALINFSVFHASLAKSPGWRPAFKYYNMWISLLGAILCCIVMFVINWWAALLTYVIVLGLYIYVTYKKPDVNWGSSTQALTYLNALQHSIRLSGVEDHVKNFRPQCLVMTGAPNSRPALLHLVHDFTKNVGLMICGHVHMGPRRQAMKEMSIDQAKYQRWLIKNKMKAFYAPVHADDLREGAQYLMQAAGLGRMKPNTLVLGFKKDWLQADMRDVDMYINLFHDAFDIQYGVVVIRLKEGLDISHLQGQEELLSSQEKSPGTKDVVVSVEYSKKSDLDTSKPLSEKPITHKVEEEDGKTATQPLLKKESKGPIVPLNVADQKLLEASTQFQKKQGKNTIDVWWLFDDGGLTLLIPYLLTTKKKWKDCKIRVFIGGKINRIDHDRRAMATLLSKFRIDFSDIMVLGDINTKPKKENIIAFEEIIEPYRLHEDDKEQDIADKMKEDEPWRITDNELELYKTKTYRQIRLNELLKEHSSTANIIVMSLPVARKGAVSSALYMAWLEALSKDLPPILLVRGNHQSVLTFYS
Experimental: Na—K—Cl co-transport was measured as ouabain-insensitive, bumetamide-sensitive potassium influx, using ^86Rb as a tracer for potassium. […] The assay medium also contained ^86Rb (1 μCi/ml) (Dupont New England Nuclear, Boston, Mass.). The assay was terminated by rinsing the wells with ice-cold isotonic MgCl2, then extracting the contents with 0.2% sodium dodecyl sulfate (SDS), and determining the amount of radioactive contents by liquid scintillation. Osmolarities of all preincubation and assay media were verified by osmometry (Model 3W2, Advanced Instruments, Norwood, Mass.).
The cells were pretreated with Hepes-buffered minimal essential medium (MEM) ±10 μM bumetamide ±1 mM ouabain for 5 min, then assayed for 5 min in the same media plus ^86Rb. […] Data are means ±SEM, n=12.
Na—K—Cl co-transport activity of glaucomatous human TM cells was assessed as ouabain-insensitive, bumetamide-sensitive K influx, using ^86Rb as a tracer for K, as described previously. TM cells were preincubated for 5 minutes in a Hepes-buffered MEM containing 0 or 10 μM bumetamide in the presence of 1 mM ouabain, followed by a 5 minute assay in media of identical composition except that they also contained ^86Rb. […] Data are mean values ±SEM in seven normal TM cultures (donor age range, 38-68 years, n=12 in each cell culture) and in seven glaucomatous cultures (donor age range 41-75 years, n=7 in each cell culture).
Human TM cells were equilibrated in Hepes-buffered MEM for 30 minutes and then pretreated for 5 minutes in media containing 1 mM ouabain, 10 or 0 μM bumetamide, and 0.3 μM to 1 mM niflumic acid (NA). Cells were then assayed for bumetamide-sensitive K influx for 5 minutes in media identical to the pretreatment media but also containing ^86Rb (1 μCi/ml). […] Dashed line indicates control level of Na—K—Cl co-transport. Data are means ±SEM of at least 4 determinations from 3 experiments.

human TM cells [3] = test: Intracellular volume of human TM cells (14C-urea/14C-sucrose water space or COULTER COUNTER electronic cell sizing), isotonic medium; assay type: cell-based; conditions: for reduction in intracellular volume: human TM cells, 10 μM bumetamide, isotonic conditions; for TM cell volume: hormones and intracellular regulators acting on the co-transporter
Experimental: The intracellular volume of human and bovine TM cells was evaluated by two methods: 1) radioisotopic evaluation of TM monolayer intracellular water space using ^14C-urea and ^14C-sucrose as markers of total and extracellular space, respectively; and 2) electronic cell sizing of suspended TM cells, using a COULTER COUNTER™ assay (Coulter Electronics, Ltd., Hialeah, Fla.). Details of these methods have been described previously by O'Donnell (O'Donnell, M. E., supra, 1993) the entirety of which is incorporated herein by reference.
By the first method, cell monolayers were preequilibrated for 30 minutes in Hepes MEM at 37° C. in an air atmosphere, then incubated for 20 minutes in Hepes MEM containing 0 or 10 μM bumetamide, ethacrynic acid, or other agents to be tested, and finally incubated for 10 minutes in the same medium containing either ^14C-urea or ^14C-sucrose (both at 1 μCi/ml). Monolayers were then rinsed with isotonic ice-cold MgCl2 and radioactivity of SDS extracts determined by liquid scintillation. Specific activities (counts per minute/ml) of ^14C-urea and ^14C-sucrose in the assay medium were determined and used to calculate water space associated with trapped radioactivity (expressed as μl/mg protein. Intracellular volume was calculated as the difference between the water space determined for ^14C-urea (a marker for intracellular plus trapped extracellular space) and ^14C-sucrose (a marker for trapped extracellular space).
as §1
Human TM cells were exposed to isotonic medium ±niflumic acid (10 or 100 μM)±10 μM bumetamide. Cell volume was assessed by COULTER COUNTER™ electronic cell sizing over the time course shown, using TM cells in suspension. Note that niflumic acid (NA) alone decreases volume of the TM cells and that exposing the cells to NA plus bumetamide causes a further decrease in TM cell volume. Data represent means of two experiments (all conditions shown tested in both experiments).

[4] = system: perfused human anterior chambers; test: Outflow facility of perfused human anterior chambers; conditions: perfused with bumetamide
From the text: The effect is expected to be transient because after the initial cell shrinkage, the co-transporter is activated to restore volume in the TM cells and, thus, the cell shrinkage is only transient. […] Here again, the cells rapidly respond to altered volume, in this case by activating ion efflux pathways to decrease volume of the cells to normal.

Structure (SMILES): O=S(=O)(O)c1cc(N=C=S)ccc1C=Cc1ccc(N=C=S)cc1S(=O)(=O)O [DIDS, 4,4′-diisothiocyanostilbene-2,2′-disulfonic acid]
regulatory volume decrease (RVD) (human TM cells [1]): attenuated; also recorded: reduced
swelling-activated (hypotonic medium-induced) ion conductance (human TM cells [2]; DIDS 1 mM): does not increase; also recorded: abolished; also recorded: blocked

Structure (SMILES): O=C(O)c1ccccc1Nc1ccccc1 [DPC, diphenylamine carboxylate]
regulatory volume decrease (RVD) (human TM cells [1]): attenuated

Structure (SMILES): O=C(O)c1cc([N+](=O)[O-])ccc1NCCCc1ccccc1 [NPPB]
swelling-activated (hypotonic medium-induced) ion conductance (human TM cells [2]; NPPB 100 μM): blocked; also recorded: abolished

Structure (SMILES): CC[N+](CC)(CC)CC [TEA, tetraethylammonium]
regulatory volume decrease (RVD) (human TM cells [1]): diminished
niflumic acid-activated TM cell conductance (human TM cells [2]; niflumic acid 100 μM plus K channel blocker TEA 1 mM): abolished

total K influx in TM cells (Na—K—Cl co-transporter; human TM cells, 10 μM bumetamide, 86Rb tracer): blocks a substantial portion
Structure (SMILES): CCCCNc1cc(C(=O)O)cc(S(N)(=O)=O)c1Oc1ccccc1 [bumetamide]
reduction in intracellular volume (human TM cells [3]; 30 minute exposure): 12±4%
reduction in intracellular volume (human TM cells [3]; 60 minute exposure): 25±6%
cell volume of normal and glaucomatous TM cells (human TM cells [3]; normal and glaucomatous human TM cells exposed to bumetamide): decreased
outflow facility [4]: sustained elevation

Structure (SMILES): Nc1ncnc2c1ncn2[C@@H]1O[C@@H]2COP(=O)(O)O[C@H]2[C@H]1O [cyclic AMP]
inhibition of Na—K—Cl co-transporter of glaucomatous TM cells (Na—K—Cl co-transporter; glaucomatous human TM cells): insensitive
TM cell volume (human TM cells [3]): reduce

Structure (SMILES): NS(=O)(=O)c1cc(C(=O)O)c(NCc2ccco2)cc1Cl [furosemide]
regulatory volume decrease (RVD) (human TM cells [1]): no effect

Structure (SMILES): NC[C@H](O)c1ccc(O)c(O)c1 [norepinephrine]
TM cell volume (human TM cells [3]): reduce
